Experiments:
[1] = DPPH free radical scavenging assay; details: concentration range 3–100 µM
Description: As a consequence, in vitro antioxidant activities of selected N-aliphatic- and N-aryl-substituted aminodiols were determined by 1,1-diphenyl-2-picrylhydrazyl (DPPH) assay.
The antioxidant effects of the aminodiol derivatives were tested on 1,1-diphenyl-2-picrylhydrazyl (DPPH) radicals according to Brand-Williams (1995) [55] and Sánchez-Moreno (2002) [56], with some modifications. […] After a 30 min incubation period at room temperature (25 °C) the absorbances were measured at 517 nm by a microplate reader (SPECTROStar Nano, BMG Labtech, Offenburg, Germany). Trolox (3,4-Dihydro-6-hydroxy-2,5,7,8-tetramethyl-2H-1-benzopyran-2-carboxylic acid) was used as a positive control. All measurements were performed in duplicate with 5 parallels.

[2] = tested on: panel of human cancer cell lines; assay: MTT antiproliferative assay, panel of human cancer cell lines (summary statements); format: cell-based; details: range over the cancer cell lines, read-out: calculated IC50 value on the malignant cell lines
Description: (§1) The in vitro antiproliferative activities of the synthesized aminodiols 4–38 against a panel of different human cancer cell lines of gynecological origin, including cervical (SiHA and HeLa), breast (MCF7 and MDA-MB-231), and ovary (A2780) cancers were assayed by the MTT method. […] Cisplatin, a clinically applied anticancer agent, was used as a reference compound and the results are summarized in Figure 3 and Table S1 in Supporting Information. […] On the other hand, none of the prepared azole derivatives exerted relevant activity.
The growth-inhibitory effects of the gibberellic acid-based aminodiol derivatives were determined by a standard MTT (3-(4,5-dimethylthiazol-2-yl)-2,5-diphenyltetrazolium bromide) assay on a panel containing five cell lines, including Hela and Siha (cervical cancers); MDA-MB-231 and MCF-7 (breast cancers); and A2780 ovarian cancer cells. The most promising agents were additionally tested against NIH/3T3 mouse embryo fibroblast cells. All cell lines were purchased from the European Collection of Cell Cultures (Salisbury, UK) except SiHa, which was obtained from the American Tissue Culture Collection (Manassas, VA, USA). […] As the final step, the absorbance was measured at 545 nm by using a microplate reader (SPECTROStar Nano, BMG Labtech, Offenburg, Germany). […]

[3] = tested on: A2780 ovarian cancer cells; assay: MTT antiproliferative assay, A2780; format: cell-based, human; details: for IC50: A2780, 72 h; for inhibition at 10 µM / inhibition at 30 µM / Growth inhibition (%) ± SEM: 72 h; for inhibition at 10 µM / inhibition at 30 µM: read-out: Growth inhibition (%) ± SEM
Description: as §1
(§2) The growth-inhibitory effects of the gibberellic acid-based aminodiol derivatives were determined by a standard MTT (3-(4,5-dimethylthiazol-2-yl)-2,5-diphenyltetrazolium bromide) assay on a panel containing five cell lines, including Hela and Siha (cervical cancers); MDA-MB-231 and MCF-7 (breast cancers); and A2780 ovarian cancer cells. The most promising agents were additionally tested against NIH/3T3 mouse embryo fibroblast cells. All cell lines were purchased from the European Collection of Cell Cultures (Salisbury, UK) except SiHa, which was obtained from the American Tissue Culture Collection (Manassas, VA, USA). The cells were maintained in minimal essential medium supplemented with 10% fetal bovine serum, 1% non-essential amino acids, and 1% penicillin-streptomycin at 37 °C in a humidified atmosphere containing 5% CO2. All media and supplements were obtained from Lonza Group Ltd., (Basel, Switzerland). Cancer cells were seeded into 96-well plates (5000 cells/well), after an overnight incubation the test compound was added in 2 different concentrations (10 µM and 30 µM) and incubated for another 72 h under cell-culturing conditions. Then, 20 μL of 5 mg/mL MTT solution was added to each well and incubated for a further 4 h. The medium was removed, and the precipitated formazan crystals were dissolved in DMSO during 60 min of shaking at 37 °C. As the final step, the absorbance was measured at 545 nm by using a microplate reader (SPECTROStar Nano, BMG Labtech, Offenburg, Germany). Untreated cells were included as controls. […] These agents were additionally tested against NIH/3T3 fibroblasts to obtain results about their cancer selectivity. Two independent experiments were performed with five wells for each condition. Cisplatin (Ebewe GmbH, Unterach, Austria), a clinically used anticancer agent, was used as a positive control. Calculations were performed utilizing the GraphPad Prism 5.01 software (GraphPad Software Inc., San Diego, CA, USA).

[4] = tested on: HeLa cells (cervical cancer); assay: MTT antiproliferative assay, HeLa; format: cell-based, human; details: 72 h; for inhibition at 10 µM / inhibition at 30 µM: read-out: Growth inhibition (%) ± SEM
Description: as §1, §2

[5] = tested on: SiHa cells (cervical cancer); assay: MTT antiproliferative assay, SiHa; format: cell-based, human; details: 72 h; for inhibition at 10 µM / inhibition at 30 µM: read-out: Growth inhibition (%) ± SEM
Description: as §1, §2

[6] = tested on: MDA-MB-231 cells (breast cancer); assay: MTT antiproliferative assay, MDA-MB-231; format: cell-based, human; details: for IC50: MDA-MB-231, 72 h; for inhibition at 10 µM / inhibition at 30 µM / Growth inhibition (%) ± SEM: 72 h; for inhibition at 10 µM / inhibition at 30 µM: read-out: Growth inhibition (%) ± SEM
Description: as §1, §2

[7] = tested on: NIH/3T3 mouse embryo fibroblast cells; assay: MTT assay on non-cancerous fibroblasts (cancer selectivity); format: cell-based; details: for inhibition at 10 µM / inhibition at 30 µM / Growth inhibition (%) ± SEM: 72 h; for inhibition at 10 µM / inhibition at 30 µM: read-out: Growth inhibition (%) ± SEM; for IC50: NIH/3T3, 72 h; for cancer selectivity (cancer cells vs NIH/3T3 fibroblasts), words: comparison of IC50 on fibroblasts and malignant cell lines
Description: as §1, §2

[8] = Homo sapiens, MDA-MB-231, 10 μM
[9] = Homo sapiens, MDA-MB-231, 30 μM
[10] = Mus musculus, NIH3T3, NIH/3T3, 10 μM
[11] = Mus musculus, NIH3T3, NIH/3T3, 30 μM

Row | SMILES | DPPH scavenging activity [1] | IC50 ([3]; Homo sapiens) [µM] | inhibition at 10 µM ([3]; Homo sapiens, A2780, 10 μM) [%] | inhibition at 30 µM ([3]; Homo sapiens, A2780, 30 μM) [%] | inhibition at 10 µM ([4]; Homo sapiens, 10 μM) [%] | inhibition at 30 µM ([4]; Homo sapiens, 30 μM) [%] | IC50 ([4]; Homo sapiens) [µM] | inhibition at 10 µM ([5]; Homo sapiens, 10 μM) [%] | inhibition at 30 µM ([5]; Homo sapiens, 30 μM) [%] | IC50 ([5]; Homo sapiens) [µM] | IC50 ([6]; Homo sapiens) [µM] | inhibition at 10 µM [6, 8] [%] | inhibition at 30 µM [6, 9] [%] | inhibition at 10 µM [7, 10] [%] | inhibition at 30 µM [7, 11] [%] | IC50 ([7]; Mus musculus, NIH3T3) [µM] | cancer selectivity (cancer cells vs NIH/3T3 fibroblasts), words [7] | melting point [°C] | other results
1 | CCOC(=O)[C@H]1c2c(C)cccc2[C@H]2CC[C@]3(O)C[C@@]21C[C@]3(O)CN[C@@H](C)c1cccc2ccccc12 [Compound 13, Ethyl (4bS,7S,8S,9aR,10R)-7,8-dihydroxy-1-methyl-8-((((S)-1-(naphthalen-1-yl)ethyl)amino)methyl)-4b,6,7,8,9,10-hexahydro-5H-7,9a-methanobenzo[a]azulene-10-carboxylate] | None of the six molecules elicited considerable activity | 5.3 ± 0.41 | 91.2 ± 1.96 | 96.7 ± 1.17 | 97.16 ± 0.49 | 96.87 ± 0.47 | 4.38 ± 0.08 | 96.05 ± 0.46 | 96.74 ± 0.27 | 4.69 ± 0.17 | 7.49 ± 1.26 | 94.86 ± 0.83 | 96 ± 0.92 | 40.5 ± 0.86 | 88.1 ± 0.16 | 10.9 | modest cancer selectivity | – | IC50 [2]: 4.38 to 7.49 µM
2 | CCOC(=O)[C@H]1c2c(C)cccc2[C@H]2CC[C@]3(O)C[C@@]21C[C@]3(O)CN [Compound 25, Ethyl (4bS,7S,8S,9aR,10R)-8-(aminomethyl)-7,8-dihydroxy-1-methyl-4b,6,7,8,9,10-hexahydro-5H-7,9a-methanobenzo[a]azulene-10-carboxylate] | None of the six molecules elicited considerable activity | – | < 20 | < 20 | < 20 | < 20 | – | < 20 | < 20 | – | – | < 20 | < 20 | – | – | – | – | 92 to 94 | –
3 | CCOC(=O)[C@H]1c2c(C)cccc2[C@H]2CC[C@]3(O)C[C@@]21C[C@]3(O)CN[C@@H](C)c1ccc2ccccc2c1 [Compound 12] | None of the six molecules elicited considerable activity | – | – | – | – | – | – | – | – | – | – | – | – | – | – | – | inhibited the growth of cancer cells and fibroblasts in the same concentration range | – | Growth inhibition (%) ± SEM ([3]; A2780, 10 μM): 96.29 ± 0.59%; Growth inhibition (%) ± SEM ([3]; A2780, 30 μM): 96.28 ± 0.82%; IC50 [3]: 5.45 ± 0.31 µM; Growth inhibition (%) ± SEM ([4]; 10 μM): 97.69 ± 0.28%; Growth inhibition (%) ± SEM ([4]; 30 μM): 97.62 ± 0.55%; IC50 [4]: 4.14 ± 0.38 µM; Growth inhibition (%) ± SEM ([5]; 10 μM): 97.41 ± 0.15%; Growth inhibition (%) ± SEM ([5]; 30 μM): 97.06 ± 0.20%; IC50 [5]: 4.17 ± 0.32 µM; Growth inhibition (%) ± SEM ([6]; MDA-MB-231, 10 μM): 95.00 ± 0.69%; Growth inhibition (%) ± SEM ([6]; MDA-MB-231, 30 μM): 93.72 ± 0.88%; IC50 [6]: 7.19 ± 1.48 µM; Growth inhibition (%) ± SEM ([7]; NIH/3T3, 10 μM): 90.43 ± 0.15%; Growth inhibition (%) ± SEM ([7]; NIH/3T3, 30 μM): 91.03 ± 0.05%; IC50 [7]: 4.57 ± 0.23 µM
4 | CCOC(=O)[C@H]1c2c(C)cccc2[C@H]2CC[C@]3(O)C[C@@]21C[C@]3(O)CN(C)Cc1ccccc1 [Compound 16, Ethyl (4bS,7S,8S,9aR,10R)-8-((benzyl(methyl)amino)methyl)-7,8-dihydroxy-1-methyl-4b,6,7,8,9,10-hexahydro-5H-7,9a-methanobenzo[a]azulene-10-carboxylate] | None of the six molecules elicited considerable activity | – | < 20 | 21.6 ± 0.85 | < 20 | 36 ± 2.89 | – | < 20 | 23 ± 0.39 | – | – | < 20 | 25 ± 0.99 | – | – | – | – | 94 to 95 | –
5 | CCOC(=O)[C@H]1c2c(C)cccc2[C@H]2CC[C@]3(O)C[C@@]21C[C@]3(O)Cn1nnc2ccccc21 [Compound 30, Ethyl (4bS,7S,8S,9aR,10R)-8-((1H-benzo[d][1,2,3]triazol-1-yl)methyl)-7,8-dihydroxy-1-methyl-4b,6,7,8,9,10-hexahydro-5H-7,9a-methanobenzo[a]azulene-10-carboxylate] | None of the six molecules elicited considerable activity | – | < 20 | 26.8 ± 3.79 | < 20 | < 20 | – | < 20 | 29.5 ± 2 | – | – | < 20 | < 20 | – | – | – | – | – | –
6 | CCOC(=O)[C@H]1c2c(C)cccc2C2CC[C@]3(O)C[C@@]21C[C@]3(O)CN[C@H](C)c1cccc2ccccc12 (stereo partly drawn) [Compound 14, Ethyl (7S,8S,9aR,10R)-7,8-dihydroxy-1-methyl-8-((((R)-1-(naphthalen-1-yl)ethyl)amino)methyl)-4b,6,7,8,9,10-hexahydro-5H-7,9a-methanobenzo[a]azulene-10-carboxylate] | None of the six molecules elicited considerable activity | 5.15 ± 0.28 | 96.53 ± 0.73 | 95.9 ± 1.06 | 98.08 ± 0.19 | 97.4 ± 0.34 | 4.66 ± 0.21 | 96.3 ± 2.13 | 97.84 ± 0.42 | 5.25 ± 0.86 | 8.04 ± 0.61 | 96.57 ± 0.37 | 96.77 ± 0.16 | 88.6 ± 0.97 | 88.7 ± 0.98 | 5.02 ± 0.26 | inhibited the growth of cancer cells and fibroblasts in the same concentration range | – | –
